These results are taken from patent publication US10435375B2, “CXCR4 chemokine receptor modulators” (NORTHWESTERN UNIVERSITY, priority 2015, dated 2019).

Structures are written as SMILES. Entries after “also recorded” stand apart in the source; their conditions may differ.

One data set has as its system KT1 cells. As to the kind of experiment: Cell viability assay measuring colony forming units of KT1 cells, with imatinib. Format: cell-based. The following applies: combination with imatinib. As for the experimental part:
FIG. 21. Cell viability assay measuring colony forming units of KT1 cells. Cells were treated with kinase inhibitor imatinib, the indicated CXCR4 agent, or a combination, at the indicated concentrations.

Data set [1] relates to cells from AML patient #2. As to the kind of experiment: Cell viability assay measuring colony forming units, cells from AML patient #2, with Ara-C. Format: cell-based. The following applies: AML patient #2 cells; combination with Ara-C. As for the experimental part: FIG. 22. Cell viability assay measuring colony forming units of from AML patient #2. Cells were treated with cytotoxic agent Ara-C, the indicated CXCR4 agent, or a combination.

In data set [2] the target is T1, CXCR4 (Homo sapiens, UniProt P61073). As to the kind of experiment: Calcium imaging ((Ca)i mobilization) assay, fura-2, C8161 melanoma cells. The format is cell-based. Details: human melanoma cell line C8161 was initially used, which expresses numerous human CXCR4 receptors; endogenous in cells; host or cells: C8161 human melanoma cells. Particulars: for compound's (Ca)i response in presence of CXCR4 antagonist AMD3100 / own (Ca)i response (agonist effect): C8161 cells; for compound's (Ca)i response in presence of CXCR4 antagonist AMD3100: AMD3100 1 μM where stated; for own (Ca)i response (agonist effect): compounds 10 μM where stated, SDF-1 100 nM; for Ca^2+ Assay: Table 1, calcium imaging behavior; for Pharmacology: Table 2, agonist or antagonist. The text has this: The initial assay for examining the activity of different molecules was based on the fact that activation of CXCR4 receptors produces an increase in the intracellular free Ca^2+ concentration (Ca)i. This signal can easily be observed using a fluorescent Ca^2+ sensing dye such as fura-2. The quantitative nature of this assay makes it ideal for screening purposes. Moreover, the assay can also distinguish potential antagonists from potential agonists. The aggressive human melanoma cell line C8161 was initially used, which expresses numerous human CXCR4 receptors and produces strong (Ca)I signals when stimulated with SDF-1 (FIG. 3). In the assay, cells were usually stimulated twice with SDF-1. […] To test a drug, the compound in question was usually added prior to the second stimulation with SDF-1. At this point it was possible to observe whether the compound itself acted as an agonist by giving its own response or if it reduced the magnitude of the second response to SDF-1. […] Each of the four antagonists were then assayed at multiple concentrations to obtain a dose-response relationship and an estimated IC50. Antagonists NUCC-388, 397, 392, and 51420 had IC50 values of 0.3 μM, 3 μM, 1 μM, and 1 μM respectively.

The target of another data set is T2, CXCR4-YFP (Homo sapiens, UniProt P61073).
T2 construct: expressed in transfected cells; host or cells: HEK293 cells
Description: Internalization of YFP-tagged CXCR4 receptors in HEK293 cells. The format is cell-based. Particulars: 2 hours, SDF-1 100 nM, NUCC-390 10 μM.

The subject of the next data set is C8161 cells. Description: Chemotaxis of C8161 cells, Boyden chamber assay. Particulars: SDF-1 100 nM, NUCC-390 10 μM, p<0.01, n=6. The format is cell-based, human. The text has this:
Chemokines are well known for their ability to stimulate chemotaxis of leukocytes and stem cells. In order to further establish the biological activity of the CXCR4 agonists, the ability of SDF-1 and NUCC-390 to produce chemotaxis of C8161 cells was compared using a Boyden chamber assay.

The test system of a further data set is U937 cells. As to the kind of experiment: Cell viability assay, U937 cells, with Ara-C. The format is cell-based. The procedure: FIG. 20. Cell viability assay with agonist NUCC-390 and known chemotherapeutics. The first bar is viability no NUCC-390 or Ara-C. Otherwise, the concentration of NUCC-390 was maintained at 50 μM in all experiments. U937 cells were treated with NUCC-390 and the indicated concentration of Ara-C.

The target in data set [3] is T1, CXCR4. Description: ERK activation (pERK, Western blot) in C8161 cells. Format: cell-based. Also noted: human melanoma cell line C8161 was initially used, which expresses numerous human CXCR4 receptors; endogenous in cells; host or cells: C8161 human melanoma cells. The following applies: SDF-1 100 nM, NUCC-390 10 μM, 30 min. The text has this: To further explore the agonist potential of compound NUCC-390, changes in signaling downstream of CXCR4 were examined. For these experiments, lysates were collected from treated C8161 cells and analyzed them using Western blot. […] That drug NUCC-390 has the capability of stimulating signaling activity downstream of CXCR4 receptors further supports the observation that NUCC-390 acts as a CXCR4 agonist.
(A western blot detects proteins with antibodies after separation by electrophoresis.)

T1 sequence (P61073 whole entry): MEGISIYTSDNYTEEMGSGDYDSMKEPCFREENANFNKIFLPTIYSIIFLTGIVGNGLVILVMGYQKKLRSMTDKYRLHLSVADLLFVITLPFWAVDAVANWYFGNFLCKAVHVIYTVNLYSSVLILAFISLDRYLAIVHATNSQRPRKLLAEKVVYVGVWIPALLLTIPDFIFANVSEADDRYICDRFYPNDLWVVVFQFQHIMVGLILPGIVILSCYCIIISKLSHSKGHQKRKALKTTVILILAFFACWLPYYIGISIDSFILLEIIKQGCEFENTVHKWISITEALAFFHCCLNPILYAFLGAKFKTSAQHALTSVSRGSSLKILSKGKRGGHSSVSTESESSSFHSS
T2 sequence (P61073 whole entry): as above

Turning to `CCCn1nc(C(=O)N(C)C)c2c1CCC(NCc1ccc(F)cc1)C2` (stereo not drawn) [NUCC-0054121, 5-((4-Fluorobenzyl)amino)—N,N-dimethyl-1-propyl-4,5,6,7-tetrahydro-1H-indazole-3-carboxamide], the “effect on cell killing by imatinib (colony forming units)” value in the data set with KT1 cells is recorded as “enhanced the cell killing ability of imatinib”. Further, the “effect on cell killing by Ara-C (colony forming units)” value in data set [1] is reported as “enhanced the cell killing ability of Ara-C”. At CXCR4 [2], the “compound's (Ca)i response in presence of CXCR4 antagonist AMD3100” value is given as “inhibited by AMD3100”, the “own (Ca)i response (agonist effect)” value is recorded as “robust agonist activity”, the “Ca^2+ Assay” value is reported as “Agonist” and the Pharmacology result is reported as “Agonist”.
With `CCCn1nc(C(=O)N2CCCCC2)c2c1CCC(NCCc1ccncc1)C2` (stereo not drawn) [NUCC-0000390, Piperidin-1-yl(1-propyl-5-((2-(pyridin-4-yl)ethyl)amino)-4,5,6,7-tetrahydro-1H-indazol-3-yl)methanone], the CXCR4-YFP receptor internalization entry at CXCR4-YFP is “causes most of the CXCR4 receptor to become internalized”. For the same compound, in the data set on C8161 cells, the chemotaxis result is recorded as “matched by the effects of NUCC-390”. Also, the “effect on cell viability, compound alone” value with U937 cells (NUCC-390 50 μM) is given as “only a modest effect by itself”. Besides, in the data set with U937 cells (NUCC-390 50 μM plus Ara-C), the “effect on cytotoxicity of Ara-C in combination” value is recorded as “significantly increased the cytotoxicity of Ara-C”. Also, at CXCR4 [2] (listed as NUCC-390), the “compound's (Ca)i response in presence of CXCR4 antagonist AMD3100” value is given as “completely inhibited; also recorded: completely blocked by AMD3100” and the “own (Ca)i response (agonist effect)” value is on record as “produced their own response; also recorded: effects were similar to those produced by SDF-1; also recorded: strong (Ca)i response; also recorded: produced agonist effects”. At CXCR4 [2], the “Ca^2+ Assay” value is on record as “Agonist” and the Pharmacology entry is “Agonist”. Also, the “level of phosphorylated ERK (pERK)” value at CXCR4 [3] is on record as “increased levels of pERK; also recorded: Increase in pERK”.
